From article PMC12547551, “Lanostane–Meroterpene Conjugates with Unusual Aryl Ether Linkage and a Lanostane Dimer from Artificially Cultivated Fruiting Bodies of Ganoderma cf. hochiminhense” (ACS Omega, 2025)
Values after ≈ are worked out from the molar mass of the structure shown.

Experiments:
[1] = tested on: Plasmodium falciparum K1; test: Antiplasmodial assay, microculture radioisotope technique; format: cell-based; details: P. falciparum K1, standard drug
[2] = tested on: Mycobacterium tuberculosis H37Ra; test: Antimycobacterial activity, green fluorescent protein detection method; format: cell-based; details: M. tuberculosis H37Ra, standard drugs
[3] = tested on: NCI-H187 (small-cell lung cancer) cells; test: Cytotoxicity against NCI-H187 cells, resazurin fluorescent method; format: cell-based; details: Homo sapiens
[4] = tested on: MCF-7 (breast cancer) cells; test: Cytotoxicity against MCF-7 cells, resazurin fluorescent method; format: cell-based; details: Homo sapiens, MCF7
[5] = tested on: Vero cells; test: Cytotoxicity to Vero cells, green fluorescent protein detection method; format: cell-based, African green monkey; details: Chlorocebus sabaeus; nonmalignant Vero cells

C[C@H]1[C@@H](O)O[C@@H]2O[C@@]3(C)CC[C@H]4[C@H](C)CC[C@@H]1[C@@]24OO3 [Dihydroartemisinin]
IC50 [1]: 0.0014 µM

CO[C@H]1/C=C/O[C@@]2(C)Oc3c(C)c(O)c4c(O)c(c(/C=N/N5CCN(C)CC5)c(O)c4c3C2=O)NC(=O)/C(C)=C\C=C\[C@H](C)[C@H](O)[C@@H](C)[C@@H](O)[C@@H](C)[C@H](OC(C)=O)[C@@H]1C [Rifampicin]
MIC [2]: 0.025 µg/mL (≈ 0.0304 µM)

CCN(CC)CCCC(C)Nc1ccnc2cc(Cl)ccc12 (centres unmarked) [chloroquine]
IC50 [1]: 0.58 µM

COc1cccc2c1C(=O)c1c(O)c3c(c(O)c1C2=O)C[C@@](O)(C(=O)CO)C[C@@H]3O[C@H]1C[C@H](N)[C@H](O)[C@H](C)O1 [doxorubicin, reference compound]
IC50 [3]: 0.15 µM
IC50 [4]: 11 µM

Cc1c2ccncc2c(C)c2c1[nH]c1ccccc12 [ellipticine, reference compound]
IC50 [5]: 6 µM
IC50 [3]: 7.6 µM

CC(C)=CCC/C(=C/Cc1cc(O)ccc1O)C(=O)O [fornicin F (10), Fornicin F]
IC50 [5]: > 181 µM
IC50 [3]: 134 µM
IC50 [4]: > 181 µM

CCC(=O)CC[C@@]1(C)OC[C@]23[C@@H](O)C(=O)C4=C(C(=O)C[C@@H]([C@@]5(C)CO5)[C@]4(C)CCC(=O)O[C@@H](CC[C@@H](C)[C@H]4CC[C@@]5(C)C6=CC[C@H]7C(C)(C)C(=O)CC[C@]7(C)C6=CC[C@]45C)C(C)(C)O)[C@]2(C)CC[C@@H]31 [ganohochimate A (9), Ganohochimate A]
IC50 [5]: 52 µM
IC50 [3]: > 52 µM
IC50 [4]: > 52 µM

CC(C)=CCCC(C)=CCCC(=CCc1cc(O)ccc1OC(C)(C)C(O)CCC(C)C1CCC2(C)C3=CCC4C(C)(C)C(=O)CCC4(C)C3=CCC12C)C(=O)O (centres unmarked) [ganohochimin A (1), Ganohochimin A]
IC50 [5]: 17 µM
IC50 [3]: 19 µM
IC50 [4]: > 64 µM

CC(C)=CCC/C(C)=C/CC/C(=C/Cc1cc(O)ccc1OC(C)(C)[C@@H](O)CC[C@@H](C)[C@H]1CC[C@@]2(C)C3=CC[C@H]4C(C)(C)[C@@H](O)CC[C@]4(C)C3=CC[C@]12C)C(=O)O [ganohochimin B (2), Ganohochimin B]
IC50 [5]: 28 µM
IC50 [3]: 33 µM
IC50 [4]: > 64 µM

CC(C)=CCC/C(C)=C/CC/C(=C/Cc1cc(OC(C)(C)[C@@H](O)CC[C@@H](C)[C@H]2CC[C@@]3(C)C4=CC[C@H]5C(C)(C)C(=O)CC[C@]5(C)C4=CC[C@]23C)ccc1O)C(=O)O [ganohochimin C (3), Ganohochimin C]
IC50 [5]: 30 µM
IC50 [3]: 21 µM
IC50 [4]: > 64 µM

CC(C)=CCC/C(C)=C/CC/C(=C/Cc1cc(OC(C)(C)[C@@H](O)CC[C@@H](C)[C@H]2CC[C@@]3(C)C4=CC[C@H]5C(C)(C)[C@@H](O)CC[C@]5(C)C4=CC[C@]23C)ccc1O)C(=O)O [ganohochimin D (4), Ganohochimin D]
IC50 [5]: 28 µM
IC50 [3]: 16 µM
IC50 [4]: > 64 µM

CC(C)=CCC/C(=C/Cc1cc(O)ccc1OC(C)(C)[C@@H](O)CC[C@@H](C)[C@H]1CC[C@@]2(C)C3=CC[C@H]4C(C)(C)C(=O)CC[C@]4(C)C3=CC[C@]12C)C(=O)O [ganohochimin E (5), Ganohochimin E]
IC50 [5]: 13 µM
IC50 [3]: 21 µM
IC50 [4]: > 70 µM

CC(C)=CCC/C(=C/Cc1cc(O)ccc1OC(C)(C)[C@@H](O)CC[C@@H](C)[C@H]1CC[C@@]2(C)C3=CC[C@H]4C(C)(C)[C@@H](O)CC[C@]4(C)C3=CC[C@]12C)C(=O)O [ganohochimin F (6), Ganohochimin F]
IC50 [5]: 6.3 µM
IC50 [3]: 7.7 µM
IC50 [4]: > 70 µM

CC(C)=CCC/C(=C/Cc1cc(OC(C)(C)[C@@H](O)CC[C@@H](C)[C@H]2CC[C@@]3(C)C4=CC[C@H]5C(C)(C)C(=O)CC[C@]5(C)C4=CC[C@]23C)ccc1O)C(=O)O [ganohochimin G (7), Ganohochimin G]
IC50 [5]: 14 µM
IC50 [3]: 21 µM
IC50 [4]: > 70 µM

CC(C)=CCC/C(=C/Cc1cc(OC(C)(C)[C@@H](O)CC[C@@H](C)[C@H]2CC[C@@]3(C)C4=CC[C@H]5C(C)(C)[C@@H](O)CC[C@]5(C)C4=CC[C@]23C)ccc1O)C(=O)O [ganohochimin H (8), Ganohochimin H]
IC50 [5]: 24 µM
IC50 [3]: 18 µM
IC50 [4]: > 70 µM

NNC(=O)c1ccncc1 [isoniazid]
MIC [2]: 0.375 µg/mL (≈ 2.73 µM)
